Earlier results, collected in patent US20150338392A1, “Sterile and instantly dissolvable drug membrane and method thereof for testing drug sensitivity of antineoplastic drugs” (priority 2013, published 2015).

Legend:
[1] = tested on: non-small cell lung cancer; settings: clinical, background statement
[2] = tested on: invasive breast cancer; settings: clinical, background statement

Row | SMILES | patients who receive no obvious effect [1] | invasive breast cancer patients who are not sensitive to the drug [2] [%]
1 | Nc1ccn([C@@H]2O[C@H](CO)[C@@H](O)C2(F)F)c(=O)n1 [Gemzar] | more than 60% | –
2 | COc1cccc2c1C(=O)c1c(O)c3c(c(O)c1C2=O)C[C@@](O)(C(=O)CO)C[C@@H]3O[C@H]1C[C@H](N)[C@H](O)[C@H](C)O1 [doxorubicin] | – | 50
